The results in this text go back to patent publication US9744175B2, “Compositions of combinations of non-covalent DNA binding agents and anti-cancer and/or anti-inflammatory agents and their use in disease treatment” (INDUS PHARMACEUTICALS, INC., priority 2012, dated 2017).

In one assay the test system is HCT116 (mlh−). In words: siRNA inhibition of p53 and REV functions, alamar blue growth inhibition. The class given is cell-based, human. As to the method:
(§1) siRNA specific for different genes is purchased from Dharmacon (Thermo. Fisher Scientific Dharmacon Products, Lafayette, Colo. 80026) and the protocol recommended by the supplier is utilized. Confluent cells are trypsinized and 5000 cells are seeded in a well in the presence or absence of siRNA in 100 μL medium. The cells are incubated with siRNA for two days. A non-covalent DNA binding agent of the invention is added in a 10 μL volume and incubated for another 48 hours. After treatment with the agent, the medium is replaced with 1% alamar blue containing medium to measure fluorescence after two hours.
as §1, with “from Dharmacon (Thermo Fisher Scientific” for “from Dharmacon (Thermo. Fisher Scientific”, “two hours. […] The results are presented in FIGS. 14-18 (SEQ ID NO:3-12, respectively) and Table 7.” for “two hours.”
On the technique in general: Alamar Blue is a resazurin reagent that responds to reducing activity.

The test system of the next assay is U2OS Wild type. In words: siRNA inhibition of MMR, p53 and REV functions, alamar blue growth inhibition. Format: cell-based, human. As to the method: as §1
as §1, with “from Dharmacon (Thermo Fisher Scientific” for “from Dharmacon (Thermo. Fisher Scientific”, “two hours. […] The results are presented in FIGS. 14-18 (SEQ ID NO:3-12, respectively) and Table 7.” for “two hours.”

In the next assay the test system is yeast rad52 mutation. In words: Alamar Blue cell survival assay in yeast cells. The class given is cell-based. As to the method:
(§2) The cells are diluted 100-fold in yeast complete medium. 100 μL of diluted cells are seeded in 96 well plates with or without a non-covalent DNA binding compound and incubated for 24 hours at 30° C. The following day, an equal volume of yeast complete medium containing 1% alamar blue is added and incubated at 30° C. for two hours. Fluorescence intensity is measured in a fluorescent reader to calculate the inhibition effect of non-covalent DNA binding agents in mutant and wild type yeast cells.
(§3) Yeast cells that carry mutations in different genes involved in homologous recombination (rad 50, rad51, rad52, and rad57) and nucleotide excision/double strand repair (rad1) are grown to stationary culture overnight.

The next assay deals with Wild type yeast. In words: Alamar Blue cell survival assay in yeast cells. The class given is cell-based. As for the experimental part:
as §2, §3

Another assay has as its system yeast rad51 mutation. In words: Alamar Blue cell survival assay in yeast cells. Format: cell-based. As to the method:
as §2, §3

The test system of a further assay is yeast rad50 mutation. In words: Alamar Blue cell survival assay in yeast cells. Format: cell-based. As to the method: as §2, §3
The test system of the next assay is yeast rad1 mutation. In words: Alamar Blue cell survival assay in yeast cells. The class given is cell-based. As to the method: as §2, §3

As a reminder, the IC50 is the concentration needed to halve the response being measured. In the case of `CC[C@@]1(O)C(=O)OCc2c1cc1n(c2=O)Cc2cc3ccccc3nc2-1` [Camptothecin, (S)-4-ethyl-4-hydroxy-1H-pyrano[3′,4′:6,7]indolizino[1,2-b]quinoline-3,14-(4H,12H)-dione, reference compound], in the assay with HCT116 (mlh−) (Homo sapiens, HCT-116, no siRNA knock out, read-out: IC50, Control), the IC50 was determined as 0.25 µM. Moreover, the “Fold improvement in IC50, p53” value in the assay on HCT116 (mlh−) (p53 siRNA vs control) worked out at 1.3 fold. For the same compound, the “Fold improvement in IC50, rev” value in the assay with HCT116 (mlh−) (rev siRNA vs control) amounted to 1.7 fold.

With `COc1cccc2c1C(=O)c1c(O)c3c(c(O)c1C2=O)C[C@@](O)(C(=O)CO)C[C@@H]3OC1CC(N)C(O)C(C)O1` (stereo partly drawn) [Doxorubicin, (8S,10S)-10-(4-amino-5-hydroxy-6-methyl-tetrahydro-2H-pyran-2-yloxy)-6,8,11-trihydroxy-8-(2-hydroxyacetyl)-1-methoxy-7,8,9,10-tetrahydrotetracene-5,12-dione, reference compound], the IC50 in the assay with U2OS Wild type (Homo sapiens, no siRNA knock out, read-out: IC50, Control) is 0.7 µM. In addition, the “Fold improvement in IC50, mlh1” value with U2OS Wild type (mlh1 siRNA vs control) was found to be 0.23 fold. Also, the “Fold improvement in IC50, p53” value with U2OS Wild type (p53 siRNA vs control) is 0.7 fold. The “Fold improvement in IC50, rev” value with U2OS Wild type (rev siRNA vs control) came to 0.35 fold.

With `COc1cc2c(cc1OCCCCOc1cc(-c3ccc(F)cc3)nc(C)n1)N=C[C@@H]1CCCN1C2=O` [NSC 723732], the IC50 in the assay with yeast rad52 mutation is 105 µM; with Wild type yeast, over 250 µM; in the assay on yeast rad51 mutation, 100 µM; in the assay with yeast rad50 mutation, over 250 µM; with yeast rad1 mutation, over 250 µM.
